Measured values as given in US20260174741A1, “METHODS OF REDUCING MIRO1 OR PHOSPHORYLATED ALPHA-SYNUCLEIN” (Acurex Biosciences Corporation, priority 2022, published 2026).
Read-outs that look alike come from different tables or passages of the source. Each block holds one compound with its values, some of them ahead of it.

Legend:
[1] = test system: phosphorylated Ser129 alpha-synuclein; assay: Interventional treatment of rat dopaminergic neurons after alpha-synuclein oligomer injury: phosphorylated Ser129-positive TH+ neurons; type: cell-based; conditions: interventional: 2 days alpha-syn oligomer 500 nM, then 2 more days with compound
Method: (§1) Rat dopaminergic neurons were cultured as previously described (Schinelli, S. et al. Journal of Neurochemistry 1988, 50(6), pages 1900-1907). After 7 days of culture, cells were challenged with alpha-synuclein oligomer (500 nM) for 48 hours. […] By condition, N=6 wells were performed and one plate of 96 wells were performed.
(§2) After 4 days of incubation with α-syn oligomer, cells were fixed by a solution of 4% paraformaldehyde for 20 min at room temperature, the control conditions were fixed as well following the same procedure. The cells were then permeabilized and non-specific sites were blocked with a solution of phosphate buffered saline containing (PBS) with saponin and FCS for 15 min at room temperature. […]
(§3) For each well of culture, pictures were taken using InCell Analyzer™ 2200 (GE Healthcare) with 20× magnification. […] The number of dopaminergic neurons (TH), the neurite length of dopaminergic neurons, the signal of phosphorylated 129 of α-syn in dopaminergic neurons and the signal of Miro1 in dopaminergic neurons were automatically evaluated with Developer system analysis (GE Healthcare). All values were expressed as mean±standard error of the mean. […]

[2] = test system: TH+ neurite length of rat dopaminergic neurons; assay: Interventional treatment of rat dopaminergic neurons after alpha-synuclein oligomer injury: TH+ neurite length; type: cell-based; conditions: interventional: 2 days alpha-syn oligomer, then 2 more days with compound
Method: as §1, §2, §3

Miro1 [3] = assay: Interventional treatment of rat dopaminergic neurons after alpha-synuclein oligomer injury: Miro1 levels in TH+ neurons; type: cell-based; conditions: 4 days total, doses from 123 nM to 10 μM, compared to no treatment (FIG. 9)
Method: Rat dopaminergic neurons were cultured as previously described (Schinelli, S. et al. Journal of Neurochemistry 1988, 50(6), pages 1900-1907). After 7 days of culture, cells were challenged with alpha-synuclein oligomer (500 nM) for 48 hours. Subsequent to the challenge, cells were subjected to alpha-synuclein (α-syn) oligomer (500 nM)+various concentrations of Compound 1 (0, 14, 41, 123, 370, 1100, 3300, and 10000 nM) for an additional 48 hours. By condition, N=6 wells were performed and one plate of 96 wells were performed.
as §2, §3

[4] = test system: tyrosine-hydroxylase positive (TH+) dopaminergic neurons; assay: Rat primary midbrain neuron co-culture, alpha-synuclein oligomer challenge with co-dosed/pre-treated compound: TH+ neuron count and neurite length; type: cell-based; conditions: for EC50: Rattus norvegicus, Neuron; for TH+ neurite length / TH+ neuron count: absence of any neuronal challenge; for dopamine neuron survival / dopamine neuron neurite length: dose-response experiment; for dopamine neuron survival: alpha-synuclein oligomer challenge (FIG. 2A, 5A); for dopamine neuron neurite length: alpha-synuclein oligomer challenge (FIG. 2B, 5B); for TH+ dopaminergic neuron neurite length / TH-positive dopaminergic neuron viability: immunocytochemistry, alpha-synuclein oligomers 500 nM, 96 hours
Method: (§4) The neuronal challenge was alpha-synuclein oligomers.
(§5) After incubation with alpha-synuclein (α-syn) oligomer, cells were fixed by a solution of 4% paraformaldehyde for 20 min at room temperature, the control conditions were fixed as well following the same procedure. The cells were then permeabilized and non-specific sites were blocked with a solution of phosphate buffered saline containing (PBS) with saponin and FCS for 15 min at room temperature. Cells were incubated with a chicken Anti-Tyrosine Hydroxylase antibody (TH, Abcam, ref 76442), a mouse monoclonal Anti-α-syn P129 antibody (Abcam, ref ab184674) and a Rabbit polyclonal Anti-Miro1 antibody (Sigma, ref: HPA010687) in PBS with saponin and FCS overnight at 4° C. […] Nuclei of cells were labelled by a fluorescent marker (Hoechst solution) in the same solution.
(§6) For each well of culture, pictures were taken using InCell Analyzer™ 2200 (GE Healthcare) with 20× magnification. All the images were taken in the same conditions. The number of dopaminergic neurons (TH), the neurite length of dopaminergic neurons, the signal of phosphorylated 129 of α-syn in dopaminergic neurons and the signal of Miro1 in dopaminergic neurons were automatically evaluated with Developer system analysis (GE Healthcare). All values were expressed as mean±standard error of the mean. Statistical analyses were done on the different conditions (ANOVA followed by Dunnett's test).
(§7) In an initial study, rat primary midbrain neuron co-cultures were incubated with alpha-synuclein oligomer alone, with 400 nM Compound 1, or with positive control.
(§8) Immunocytochemistry was performed for DAPI (nuclear dye), Tyrosine Hydroxylase (TH, a marker for dopaminergic neurons), and phospho-Serine129 alpha-synuclein (pS129 α-syn, a pathogenic form of alpha-synuclein found in Lewy Body pathology) in primary rat midbrain neuron co-cultures. In naive untreated neuronal cultures, healthy TH-positive dopaminergic neurons with elaborate neurites were observed and there was very low pS129 α-synbackground signal. When these neuronal cultures were stressed with toxic exogenous alpha-synuclein oligomers (500 nM, 96 hours), there was a large and statistically significant (1) loss of TH+dopaminergic neuron viability, (2) decrease of TH+dopaminergic neuron neurite length, (3) increase in pS129 α-syn-positive Lewy Body formation, and (4) increase in Miro1 protein levels.

[5] = test system: phosphorylated serine-129 (pS129) alpha-synuclein; assay: Rat primary midbrain neuron co-culture, alpha-synuclein oligomer challenge with co-dosed/pre-treated compound: pS129 alpha-synuclein; type: cell-based; conditions: for IC50: Rattus norvegicus, Neuron, read-out: IC50 for lowering pathogenic pS129 alpha-synuclein; for number of pS129+ TH+ neurons: absence of any neuronal challenge; for levels of pathogenic pS129 alpha-synuclein: dose-response experiment, alpha-synuclein oligomer challenge (FIG. 3A, 6A); for pS129 alpha-syn-positive Lewy Body formation / pS129 alpha-syn-positive Lewy Body formation in TH-negative non-dopaminergic neurons: immunocytochemistry; for pS129 alpha-syn-positive Lewy Body formation: alpha-synuclein oligomers 500 nM, 96 hours; for pS129 alpha-syn-positive Lewy Body formation in TH-negative non-dopaminergic neurons: alpha-synuclein oligomers
Method: as §4, §5, §6, §7, §8

[6] = test system: tyrosine-hydroxylase positive (TH+) dopaminergic neurons; assay: Rat primary midbrain neuron co-culture, alpha-synuclein oligomer challenge with co-dosed/pre-treated compound: TH+ neuron count and neurite length; type: cell-based; conditions: initial study, 40 nM, incubated with alpha-synuclein oligomer (FIG. 4A)
Miro1 [7] = assay: Rat primary midbrain neuron co-culture, alpha-synuclein oligomer challenge with co-dosed/pre-treated compound: Miro1 levels; type: cell-based; conditions: for Miro1 levels: absence of any neuronal challenge; for rescue of Miro1 elevation due to alpha-synuclein oligomer challenge: dose-response experiment (FIG. 3B, 6B); for Miro1 protein levels: immunocytochemistry, alpha-synuclein oligomers 500 nM, 96 hours; for Miro1 release: initial study
Method: as §4, §5, §6, §7, §8

[8] = test system: phosphorylated serine-129 (pS129) alpha-synuclein; assay: Rat primary midbrain neuron co-culture, alpha-synuclein oligomer challenge with co-dosed/pre-treated compound: pS129 alpha-synuclein; type: cell-based; conditions: initial study, 40 nM, incubated with alpha-synuclein oligomer (FIG. 4C)
[9] = test system: Parkinson's disease subject-derived fibroblast lines; assay: Ferroptosis assay: human fibroblast survival assay with RSL3 challenge; type: cell-based; conditions: DAPI-positive nuclei count, read-out: EC50 for cell survival (ferroptosis inhibition)
Method: Human fibroblast survival assay. All fibroblasts were obtained from the National Institute of Neurological Disorders and Stroke (NINDS) cell line repository housed at Rutgers University. Compounds were tested in at least one of the following Parkinson's disease subject-derived fibroblast lines: Line ND29802 (LRRK2 G2019S mutation carrier), Line ND40996 (SNCA A53T mutation carrier), or Line ND34263 (GBA N370S mutation carrier).
Human fibroblasts were seeded into 96-well plates on Day 0. On Day 1, fibroblasts were challenged with RSL3 (a ferroptosis activator, CAS No. 1219810-16-8) alone or in co-treatment with test compound administered in dose response. On Day 2, fibroblasts were fixed and stained by the nuclear stain 4′, 6-diamidino-2-phenylindole (DAPI), and the number of DAPI-positive nuclei were counted for each condition using the Yokogawa CQ1 imaging platform to quantify the EC50 for cell survival.

ferroptosis = conditions: described in Example 2 of PCT/US23/73312 as Compound 4; read-out: ferroptosis inhibitor EC50; cited from earlier work

EC50 ([4]; alpha-synuclein oligomer challenge, read-out: EC50 for rescue of TH-positive neurite length): < 150 nM
TH+ neurite length [4]: did not affect
TH+ neuron count [4]: did not affect
TH+ neuronal loss induced by alpha-synuclein oligomer ([4]; initial study, 400 nM, incubated with alpha-synuclein oligomer (FIG. 1A)): prevented TH+ neuronal loss
IC50 ([5]; alpha-synuclein oligomer challenge): < 125 nM
TH+ neuronal loss induced by alpha-synuclein oligomer [6]: prevented TH+ neuronal loss
SMILES: C[C@@H](NC(=O)Cc1ccc(C(F)(F)F)cc1)c1cc2cnn(CC(F)(F)F)c2cn1 [Compound 1, (R)—N-(1-(1-(2,2,2-trifluoroethyl)-1H-pyrazolo[3,4-c]pyridin-5-yl)ethyl)-2-(4-(trifluoromethyl)phenyl)acetamide]
levels of phosphorylated Ser129-positive TH+ neurons ([1]; doses from 370 nM to 10 μM, compared to no treatment (FIG. 7B)): significantly reduced
TH+ neurite length ([2]; doses of 370 nM, 3.3 µM, or 10 µM, compared to no treatment (FIG. 8B)): significantly restored
Miro1 levels in TH+ neurons (Miro1 [3]): statistically significantly reduced
EC50 ([4]; alpha-synuclein oligomer challenge, read-out: EC50 for rescue of TH-positive neuron viability): ~250 nM
dopamine neuron survival [4]: rescued dopamine neuron survival in a dose-dependent fashion
dopamine neuron neurite length [4]: rescued dopamine neuron neurite length in a dose-dependent fashion
TH+ dopaminergic neuron neurite length ([4]; pre-treated 400 nM): rescue of TH+dopaminergic neuron neurite length
TH-positive dopaminergic neuron viability ([4]; pre-treated 400 nM): rescue of TH-positive dopaminergic neuron viability
number of pS129+ TH+ neurons [5]: did not affect
levels of pathogenic pS129 alpha-synuclein [5]: lowered levels of pathogenic pS129 α-synin a dose-dependent fashion
pS129 alpha-syn-positive Lewy Body formation ([5]; pre-treated 400 nM): decrease/prevention in pS129 α-syn-positive Lewy Body formation
pS129 alpha-syn-positive Lewy Body formation in TH-negative non-dopaminergic neurons ([5]; pre-treatment 1.1 uM): robust decrease/prevention
pathogenic phosphorylated serine-129 (pS129) alpha-synuclein levels ([5]; initial study, 400 nM, incubated with alpha-synuclein oligomer (FIG. 1C)): reduction of pathogenic phosphorylated serine-129 (pS129) alpha-synuclein levels
Miro1 levels (Miro1 [7]): did not affect
rescue of Miro1 elevation due to alpha-synuclein oligomer challenge (Miro1 [7]): did not reach statistical significance
Miro1 protein levels (Miro1 [7]; pre-treated 400 nM): decrease in Miro1 protein levels
Miro1 release (Miro1 [7]; 400 nM, incubated with alpha-synuclein oligomer (FIG. 1B)): statistically significant rescue of Miro1 release

SMILES: CCN1CCN(c2ccc3nc4ccc(=O)cc-4sc3c2)CC1 [Compound 5, 7-(4-ethylpiperazin-1-yl)-3H-phenothiazin-3-one]
pathogenic phosphorylated serine-129 (pS129) alpha-synuclein levels [8]: reduction of pathogenic phosphorylated serine-129 (pS129) alpha-synuclein levels
EC50 ([4]; read-out: EC50 for rescue of TH-positive neurite length): < 0.4 nM
EC50 ([4]; read-out: EC50 for rescue of TH-positive neuron viability): ~7 nM
TH+ neurite length [4]: did not affect
TH+ neuron count [4]: did not affect
dopamine neuron survival [4]: rescued dopamine neuron survival in a dose-dependent fashion
dopamine neuron neurite length [4]: rescued dopamine neuron neurite length in a dose-dependent fashion
TH+ dopaminergic neuron neurite length ([4]; pre-treated 40 nM): rescue of TH+dopaminergic neuron neurite length
TH-positive dopaminergic neuron viability ([4]; pre-treated 40 nM): rescue of TH-positive dopaminergic neuron viability
IC50 [5]: < 0.4 nM
number of pS129+ TH+ neurons [5]: did not affect
levels of pathogenic pS129 alpha-synuclein [5]: lowered levels of pathogenic pS129 α-synin a dose-dependent fashion
pS129 alpha-syn-positive Lewy Body formation ([5]; pre-treated 40 nM): decrease/prevention in pS129 α-syn-positive Lewy Body formation
pS129 alpha-syn-positive Lewy Body formation in TH-negative non-dopaminergic neurons ([5]; pre-treatment 3.7 nM): robust decrease/prevention
EC50 [9]: 3.6 nM
Miro1 levels (Miro1 [7]): did not affect
rescue of Miro1 elevation due to alpha-synuclein oligomer challenge (Miro1 [7]): did not reach statistical significance
Miro1 protein levels (Miro1 [7]; pre-treated 40 nM): decrease in Miro1 protein levels
Miro1 release (Miro1 [7]; 40 nM, incubated with alpha-synuclein oligomer (FIG. 4B)): statistically significant rescue of Miro1 release

SMILES: CC(C)N1[C@@H]2CC[C@H]1CN(c1ccc3nc4ccc(=O)cc-4sc3c1)C2 [Compound 9]
levels of phosphorylated Ser129-positive TH+ neurons ([1]; doses of 11 nM, 33 nM, or 100 nM, compared to no treatment (FIG. 10B)): significantly reduced
TH+ neurite length ([2]; doses of 11 nM, 33 nM, or 100 nM, compared to no treatment (FIG. 11B)): significantly restored
EC50 (ferroptosis): 2.9 nM
